The source of these data is the supplement of paper PMC12613149.

Data set [1] in a line: collision cross section (TIMS, N2 drift gas) of the primary ion; higher = larger gas-phase ion size.
Data set [2] is described as follows: reversed-phase LC retention time (C18, 15 min MeOH gradient); higher = more hydrophobic / later elution.
The mark [3] stands for this setting: ionization mode: ESI+, ion species: [M+H]+.
Where [4] appears, read: ionization mode: ESI-, ion species: [M-H]-.
Where [5] appears, read: ionization mode: ESI+, ion species: [M]+.

For `O=C(NC(=O)c1c(F)cccc1F)Nc1ccc(Oc2ccc(C(F)(F)F)cc2Cl)cc1F` [Flufenoxuron], the collision cross section was 204.54 Å² in data set [1] (setting [3]) and 215.68 Å² in data set [1] (setting [4]). The “reversed-phase LC retention time” value in data set [2] (setting [3]) is 17.4 min; in data set [2] (setting [4]), 17.8 min.

`C[C@]12CCC(=O)C=C1CC[C@@H]1[C@@H]2C(=O)C[C@@]2(C)[C@H]1CC[C@]2(O)C(=O)CO` [Cortisone] yielded a collision cross section in data set [1] (setting [3]) of 181.22 Å². For the same molecule, in data set [2] (setting [3]), the “reversed-phase LC retention time” value worked out at 16.9 min.

Take `CCCCCCCCn1sc(Cl)c(Cl)c1=O` [DCOIT]: in data set [1] (setting [3]), the collision cross section stood at 166.39 Å². For the same molecule, in data set [2] (setting [3]), the “reversed-phase LC retention time” value came out at 16.9 min.

In data set [1] (setting [3]), `CCNc1nc(Cl)nc(NC(C)C)n1` [Atrazine] returned a collision cross section of 148.84 Å². In addition, the “reversed-phase LC retention time” value in data set [2] (setting [3]) came to 12.8 min.

With `CSc1nc(NC2CC2)nc(NC(C)(C)C)n1` [Irgarol], in data set [1] (setting [3]), the collision cross section turned out to be 163.17 Å². For the same molecule, the “reversed-phase LC retention time” value in data set [2] (setting [3]) amounted to 14.4 min.

Turning to `O=C1c2c(O)cc(O)cc2O[C@H](c2ccc(O)c(O)c2)[C@H]1O` [Taxifolin], the collision cross section in data set [1] (setting [4]) was 164.44 Å². Besides, the “reversed-phase LC retention time” value in data set [2] (setting [4]) amounted to 5.86 min.

Consider `CCCCC(CC)CNCC(CC)CCCC` (stereo not drawn) [Di(2-ethylhexyl)amine], for which the collision cross section in data set [1] (setting [3]) was 171.64 Å². Moreover, in data set [2] (setting [3]), the “reversed-phase LC retention time” value was 14.8 min.

In turn, `Clc1ccc(COC(Cn2ccnc2)c2ccc(Cl)cc2Cl)c(Cl)c1` (stereo not drawn) [Miconazole] yielded a collision cross section in data set [1] (setting [3]) of 191.81 Å². In data set [2] (setting [3]), the “reversed-phase LC retention time” value is 15.6 min.

`CC1CN(C2CCCCCCCCCCC2)CC(C)O1` (stereo not drawn) [Dodemorph] came in with a collision cross section in data set [1] (setting [3]) of 175.75 Å². Further, the “reversed-phase LC retention time” value in data set [2] (setting [3]) stood at 13.3 min.

The molecule `CCCCOCCOP(=O)(OCCOCCCC)OCCOCCCC` [Tri(butoxyethyl)phosphate] registered a collision cross section in data set [1] (setting [3]) of 198.12 Å². Further, the “reversed-phase LC retention time” value in data set [2] (setting [3]) was 16.7 min.

`CO/N=C(\C(=O)OC)c1ccccc1COc1ccccc1C` [Kresoxim-methyl] had a collision cross section in data set [1] (setting [3]) of 167.17 Å². For the same molecule, the “reversed-phase LC retention time” value in data set [2] (setting [3]) came out at 15.4 min.

For the molecule `CCNc1nc(Cl)nc(NCC)n1` [Simazine], the collision cross section in data set [1] (setting [3]) was determined as 142.98 Å². Further, the “reversed-phase LC retention time” value in data set [2] (setting [3]) is 11.5 min.

`C[N+](C)(C)Cc1ccccc1` [Benzyltrimethylammonium] came in with a collision cross section in data set [1] (setting [5]) of 129.9 Å². The “reversed-phase LC retention time” value in data set [2] (setting [5]) is 5.04 min.

On to `Cc1nccc2c1[nH]c1ccccc12` [Harman], for which the figures for the collision cross section in data set [1] (setting [3]) and in data set [1] (setting [4]) were 136.39 Å² and 135.7 Å², respectively. Further, the entries for the “reversed-phase LC retention time” value in data set [2] (setting [3]) and in data set [2] (setting [4]) were 8.86 min and 13.4 min, respectively.

The molecule `COc1ccc(-c2coc3cc(O)cc(O)c3c2=O)cc1` [Biochanin A] showed a collision cross section in data set [1] (setting [4]) of 166.25 Å². Moreover, the “reversed-phase LC retention time” value in data set [2] (setting [4]) was found to be 12.9 min.

With `C[C@]12CCC(=O)C=C1CC[C@@H]1[C@@H]2[C@@H](O)C[C@@]2(C)[C@H]1CC[C@]2(O)C(=O)CO` [Hydrocortisone], the collision cross section in data set [1] (setting [3]) was found to be 189.25 Å². In addition, the “reversed-phase LC retention time” value in data set [2] (setting [3]) turned out to be 12.4 min.

For `Cc1ccc2[nH]nnc2c1` [5-Methyl-1H-benzotriazole], the collision cross section in data set [1] (setting [3]) worked out at 123.85 Å². Further, the “reversed-phase LC retention time” value in data set [2] (setting [3]) is 9.87 min.

With `O=C(O)C(F)(F)C(F)(F)C(F)(F)OC(F)(F)F` [Perfluoro-4-methoxybutanoic acid], the collision cross section in data set [1] (setting [4]) turned out to be 133.26 Å². In addition, the “reversed-phase LC retention time” value in data set [2] (setting [4]) is 11.4 min.

`O=C1C=C(N(Cc2ccc(Cl)nc2)CC(F)F)CO1` [Flupyradifurone]: the collision cross section in data set [1] (setting [3]) worked out at 164.36 Å²; in data set [1] (setting [4]), 163.3 Å². The “reversed-phase LC retention time” value is 9.35 min in data set [2] (setting [3]) and 9.46 min in data set [2] (setting [4]).

In turn, `Cc1c(C=O)c(=O)n(-c2ccccc2)n1C` [4-Formyl-antipyrine] registered a collision cross section in data set [1] (setting [3]) of 144.44 Å². Also, the “reversed-phase LC retention time” value in data set [2] (setting [3]) is 7.67 min.

For the molecule `CCCSc1ccc2[nH]c(NC(=O)OC)nc2c1` [Albendazole], the collision cross section in data set [1] (setting [3]) was 165.21 Å²; in data set [1] (setting [4]), 165.62 Å². For the same molecule, the “reversed-phase LC retention time” value in data set [2] (setting [3]) turned out to be 13.1 min; in data set [2] (setting [4]), 14.2 min.

`CC(O)(CS(=O)(=O)c1ccc(F)cc1)C(=O)Nc1ccc(C#N)c(C(F)(F)F)c1` (stereo not drawn) [Bicalutamide]: the collision cross section in data set [1] (setting [3]) is reported as 205.43 Å²; in data set [1] (setting [4]) it was 184.69 Å². In addition, the figures for the “reversed-phase LC retention time” value in data set [2] (setting [3]) and in data set [2] (setting [4]) were 13.4 min and 13.7 min, respectively.

As to `CCNc1nc(O)nc(NC(C)C)n1` [2-Hydroxyatrazine], the collision cross section in data set [1] (setting [3]) stood at 147.52 Å²; in data set [1] (setting [4]), 146.65 Å². The entries for the “reversed-phase LC retention time” value in data set [2] (setting [3]) and in data set [2] (setting [4]) were 8.5 min and 10.7 min, respectively.

`Oc1c(Cl)cc(-c2ccc(Cl)cc2)cc1Cl` [4-Hydroxy-3,4',5-trichlorobiphenyl] came in with a collision cross section in data set [1] (setting [4]) of 154.17 Å². Further, the “reversed-phase LC retention time” value in data set [2] (setting [4]) was 15.5 min.

Molecule `CC(Cc1ccc(C(C)(C)C)cc1)CN1C[C@@H](C)O[C@@H](C)C1` (stereo partly drawn) [Fenpropimorph] registered a collision cross section in data set [1] (setting [3]) of 174.32 Å². For the same molecule, the “reversed-phase LC retention time” value in data set [2] (setting [3]) was 13.8 min.

Molecule `CC(Cc1ccc(C(C)(C)C)cc1)CN1CCCCC1` (stereo not drawn) [Fenpropidin] yielded a collision cross section in data set [1] (setting [3]) of 166.93 Å². In addition, in data set [2] (setting [3]), the “reversed-phase LC retention time” value amounted to 13.6 min.

In data set [1] (setting [3]), `C[C@]12CC[C@H]3[C@@H](CCC4=CC(=O)CC[C@@]43C)[C@@H]1CC[C@@H]2O` [Testosterone] came in with a collision cross section of 172.76 Å². In addition, the “reversed-phase LC retention time” value in data set [2] (setting [3]) was determined as 14.2 min.

As for `c1ccc2[nH]cnc2c1` [Benzimidazole], the collision cross section in data set [1] (setting [3]) worked out at 119.54 Å². Also, in data set [2] (setting [3]), the “reversed-phase LC retention time” value was 4.16 min.

On to `CC(CCOC(=O)c1ccccc1C(=O)OCCC(C)CC(C)(C)C)CC(C)(C)C` (stereo not drawn) [Di-isononyl phthalate], for which the collision cross section in data set [1] (setting [3]) was 224 Å². Moreover, in data set [2] (setting [3]), the “reversed-phase LC retention time” value is 19.6 min.

For the molecule `COC(=O)c1ccc(CNS(C)(=O)=O)cc1S(=O)(=O)NC(=O)Nc1nc(OC)cc(OC)n1` [Mesosulfuron-methyl], the results for the collision cross section in data set [1] (setting [3]) and in data set [1] (setting [4]) were 201.99 Å² and 206.67 Å², respectively. Further, the “reversed-phase LC retention time” value in data set [2] (setting [3]) amounted to 12.7 min; in data set [2] (setting [4]), 9.27 min.

`Nc1ccc2nc3ccc(N)cc3nc2c1` [2,8-Diaminophenazine] gave a collision cross section in data set [1] (setting [3]) of 143.53 Å². In data set [2] (setting [3]), the “reversed-phase LC retention time” value worked out at 8.22 min.

As to `O=P(c1ccccc1)(c1ccccc1)c1ccccc1` [Triphenylphosphine oxide], the collision cross section in data set [1] (setting [3]) amounted to 163 Å². Also, the “reversed-phase LC retention time” value in data set [2] (setting [3]) came out at 13.9 min.

On to `CC(C)Oc1cc(-n2nc(C(C)(C)C)oc2=O)c(Cl)cc1Cl` [Oxadiazone], for which the collision cross section in data set [1] (setting [3]) worked out at 182.66 Å². Also, the “reversed-phase LC retention time” value in data set [2] (setting [3]) came out at 16.9 min.

As to `C[C@@H]1NC(C)(C)CO[C@@]1(O)c1cccc(Cl)c1` [(S,S)-Hydroxybupropion], the collision cross section was 159.75 Å² in data set [1] (setting [3]) and 159.63 Å² in data set [1] (setting [4]). Further, the entries for the “reversed-phase LC retention time” value in data set [2] (setting [3]) and in data set [2] (setting [4]) were 9.89 min and 13.5 min, respectively.

For the molecule `O=[N+]([O-])c1ccc(O)c([N+](=O)[O-])c1` [2,4-Dinitrophenol], the collision cross section in data set [1] (setting [4]) came to 125.27 Å². In addition, the “reversed-phase LC retention time” value in data set [2] (setting [4]) was determined as 6.09 min.

For the molecule `C#C[C@]1(OC(C)=O)CC[C@H]2[C@@H]3CCC4=C/C(=N/O)CC[C@@H]4[C@H]3CC[C@@]21CC` [Norgestimate], the collision cross section in data set [1] (setting [3]) turned out to be 200.98 Å². For the same molecule, the “reversed-phase LC retention time” value in data set [2] (setting [3]) was 16.3 min.

Take `CCNc1nc(Cl)nc(NC(C)(C)C)n1` [Terbuthylazine]: the collision cross section in data set [1] (setting [3]) amounted to 153.3 Å². Also, in data set [2] (setting [3]), the “reversed-phase LC retention time” value was 14 min.

In data set [1] (setting [3]), `CN(C)[C@@H]1C(O)=C(C(N)=O)C(=O)[C@@]2(O)C(O)=C3C(=O)c4c(O)cccc4[C@@](C)(O)[C@H]3[C@H](O)[C@@H]12` [Oxytetracycline] gave a collision cross section of 198.92 Å². For the same molecule, in data set [2] (setting [3]), the “reversed-phase LC retention time” value was found to be 8.42 min.

In the case of `Oc1ccc(C2(c3ccc(O)cc3)c3ccccc3-c3ccccc32)cc1` [Fluorene-9-bisphenol], the collision cross section in data set [1] (setting [4]) is given as 194.22 Å². Also, the “reversed-phase LC retention time” value in data set [2] (setting [4]) was 15.3 min.

With `OC(Cn1cncn1)(Cn1cncn1)c1ccc(F)cc1F` [Fluconazole], the collision cross section in data set [1] (setting [3]) was determined as 166.92 Å²; in data set [1] (setting [4]), 158.78 Å². The “reversed-phase LC retention time” value stood at 9.38 min in data set [2] (setting [3]) and 9.54 min in data set [2] (setting [4]).
